According to patent publication US20120309739A1, “AKT / PKB INHIBITORS” (ALMAC DISCOVERY LIMITED, priority 2009, published 2012):
Counter-ions that a name gives are not always drawn.

Columns and labels:
Type in all cases: biochemical
AKT1 = target: T1, AKT1 (Homo sapiens, UniProt P31749); assay: AKT Kinase Assay (IMAP fluorescent polarisation) vs AKT1; conditions: activated AKT1, FAM Crosstide substrate
T1 construct: purchased SignalChem
Procedure, shortened: (§1)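 IMAP fluorescence-polarisation read-out (485/528 nm) of 5′FAM-Crosstide phosphorylation; IC50 fitted by non-linear regression from % inhibition against vehicle. Fourteen-point half-log compound dilutions sat 45 min at room temperature with activated isoform at linear-range amount. ATP and substrate followed for 1 h, then a 1 h binding-reagent stop.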

AKT3 = target: T2, AKT3 (Homo sapiens, UniProt Q9Y243); assay: AKT Kinase Assay (IMAP fluorescent polarisation) vs AKT3; conditions: activated AKT3, FAM Crosstide substrate
T2 construct: purchased SignalChem
T2 sequence (Q9Y243 whole entry): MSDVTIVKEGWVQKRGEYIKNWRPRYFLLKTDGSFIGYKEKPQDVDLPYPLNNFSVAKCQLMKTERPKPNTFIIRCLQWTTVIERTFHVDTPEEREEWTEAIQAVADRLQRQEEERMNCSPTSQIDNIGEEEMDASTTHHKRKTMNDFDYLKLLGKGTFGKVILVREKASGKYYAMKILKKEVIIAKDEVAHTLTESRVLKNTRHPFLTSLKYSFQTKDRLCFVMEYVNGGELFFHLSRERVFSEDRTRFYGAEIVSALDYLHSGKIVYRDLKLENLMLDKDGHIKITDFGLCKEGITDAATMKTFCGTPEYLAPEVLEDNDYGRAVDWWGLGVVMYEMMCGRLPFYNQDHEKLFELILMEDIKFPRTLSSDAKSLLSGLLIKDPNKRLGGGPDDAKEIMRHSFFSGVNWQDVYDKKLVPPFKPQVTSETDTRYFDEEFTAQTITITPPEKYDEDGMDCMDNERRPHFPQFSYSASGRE
Procedure, shortened: as §1

AKT2 = target: T3, AKT2 (Homo sapiens, UniProt P31751); assay: AKT Kinase Assay (IMAP fluorescent polarisation) vs AKT2; conditions: activated AKT2, FAM Crosstide substrate
T3 construct: purchased SignalChem
T3 sequence (P31751 whole entry): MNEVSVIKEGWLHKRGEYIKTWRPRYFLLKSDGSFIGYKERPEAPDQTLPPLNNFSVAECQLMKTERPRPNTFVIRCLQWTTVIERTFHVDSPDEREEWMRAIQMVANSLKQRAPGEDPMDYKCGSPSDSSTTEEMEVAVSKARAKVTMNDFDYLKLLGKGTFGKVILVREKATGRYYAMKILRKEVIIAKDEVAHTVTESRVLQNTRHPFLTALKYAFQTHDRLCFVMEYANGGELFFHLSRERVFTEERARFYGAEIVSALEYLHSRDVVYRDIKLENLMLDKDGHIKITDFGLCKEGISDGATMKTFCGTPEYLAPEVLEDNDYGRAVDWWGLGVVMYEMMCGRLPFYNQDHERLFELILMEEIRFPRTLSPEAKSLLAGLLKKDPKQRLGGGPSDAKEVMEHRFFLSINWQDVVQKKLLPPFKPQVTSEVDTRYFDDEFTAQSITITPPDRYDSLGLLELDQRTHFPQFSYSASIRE
Procedure, shortened: as §1

T1 sequence (P31749 whole entry): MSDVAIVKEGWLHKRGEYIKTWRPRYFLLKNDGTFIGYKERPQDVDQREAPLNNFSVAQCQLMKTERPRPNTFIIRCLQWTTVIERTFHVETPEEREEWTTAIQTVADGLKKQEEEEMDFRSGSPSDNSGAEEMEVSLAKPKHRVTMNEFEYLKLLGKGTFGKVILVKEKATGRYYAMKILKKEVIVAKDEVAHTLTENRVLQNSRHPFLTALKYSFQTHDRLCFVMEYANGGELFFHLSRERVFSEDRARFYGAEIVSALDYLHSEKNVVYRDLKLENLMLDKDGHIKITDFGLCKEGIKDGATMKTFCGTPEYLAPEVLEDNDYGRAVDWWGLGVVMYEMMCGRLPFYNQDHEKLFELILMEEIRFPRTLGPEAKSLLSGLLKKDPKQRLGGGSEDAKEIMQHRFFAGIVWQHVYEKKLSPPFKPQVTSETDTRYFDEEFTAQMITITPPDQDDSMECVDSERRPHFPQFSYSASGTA

Row | SMILES | IC50 (AKT1) [nM] | IC50 (AKT3) [nM] | IC50 (AKT2) [nM]
1 | Cn1c(OCCO)nc2oc(-c3ccc(C4(N)CCC4)cc3)c(-c3ccccc3)c2c1=O [Example 85, 6-(4-(1-Aminocyclobutyl)phenyl)-2-(2-hydroxyethoxy)-3-methyl-5-phenylfuro[2,3-d]pyrimidin-4(3H)-one, HCl] | 100 to 1000 | 1000 to 10000 | ≤ 100
2 | C[C@H](O)CNc1nc2oc(-c3ccc(C4(N)CCC4)cc3)c(-c3ccccc3)c2c(=O)n1C [Example 86, (S)-6-(4-(1-Aminocyclobutyl)phenyl)-2-((2-hydroxypropyl)amino)-3-methyl-5-phenylfuro[2,3-d]pyrimidin-4(3H)-one] | 100 to 1000 | 1000 to 10000 | 100 to 1000
3 | Cc1nc2oc(-c3ccc(C4(N)CCC4)cc3)c(-c3ccccc3)c2c(=O)n1C [Example 87, 6-(4-(1-Aminocyclobutyl)phenyl)-2,3-dimethyl-5-phenylfuro[2,3-d]pyrimidin-4(3H)-one] | 100 to 1000 | 1000 to 10000 | 100 to 1000
4 | CCNc1nc2oc(-c3ccc(C4(N)CCC4)cc3)c(-c3ccccc3)c2c(=O)n1C [Example 88, 6-(4-(1-Aminocyclobutyl)phenyl)-2-(ethylamino)-3-methyl-5-phenylfuro[2,3-d]pyrimidin-4(3H)-one, HCl] | 100 to 1000 | 1000 to 10000 | ≤ 100
5 | CNc1nc(OCCF)c2c(-c3ccccc3)c(-c3ccc(C4(N)CCC4)cc3)oc2n1 [Example 89, 6-(4-(1-Aminocyclobutyl)phenyl)-4-(2-fluoroethoxy)-N-methyl-5-phenylfuro[2,3-d]pyrimidin-2-amine, HCl] | 100 to 1000 | 1000 to 10000 | 100 to 1000
6 | Cn1c(C2CC2)nc2oc(-c3ccc(C4(N)CCC4)cc3)c(-c3ccccc3)c2c1=O [Example 90, 6-(4-(1-Aminocyclobutyl)phenyl)-2-cyclopropyl-3-methyl-5-phenylfuro[2,3-d]pyrimidin-4(3H)-one] | 100 to 1000 | > 10000 | 100 to 1000
7 | NC1(c2ccc(-c3oc4ccn(CCF)c(=O)c4c3-c3ccccc3)cc2)CCC1 [Example 91, 2-(4-(1-Aminocyclobutyl)phenyl)-5-(2-fluoroethyl)-3-phenylfuro[3,2-c]pyridin-4(5H)-one] | 1000 to 10000 | > 10000 | 1000 to 10000
8 | CCn1c(NC)nc2oc(-c3ccc(C4(N)CCC4)cc3)c(-c3ccccc3)c2c1=O [Example 92, 6-(4-(1-Aminocyclobutyl)phenyl)-3-ethyl-2-(methylamino)-5-phenylfuro[2,3-d]pyrimidin-4(3H)-one] | 100 to 1000 | 1000 to 10000 | ≤ 100
9 | CCn1c(NCCO)nc2oc(-c3ccc(C4(N)CCC4)cc3)c(-c3ccccc3)c2c1=O [Example 93, 6-(4-(1-Aminocyclobutyl)phenyl)-3-ethyl-2-((2-hydroxyethyl)amino)-5-phenylfuro[2,3-d]pyrimidin-4(3H)-one] | 1000 to 10000 | 1000 to 10000 | ≤ 100
10 | CNc1nc2oc(-c3ccc(C4(N)CCC4)cc3)c(-c3ccccc3)c2c(=O)n1CC1CC1 [Example 94] | 1000 to 10000 | 1000 to 10000 | ≤ 100
11 | NC1(c2ccc(-c3oc4nc(NCCO)n(CC5CC5)c(=O)c4c3-c3ccccc3)cc2)CCC1 [Example 95, 6-(4-(1-Aminocyclobutyl)phenyl)-3-(cyclopropylmethyl)-2-((2-hydroxyethyl)amino)-5-phenylfuro[2,3-d]pyrimidin-4(3H)-one] | 1000 to 10000 | 1000 to 10000 | ≤ 100
12 | CSc1nc2oc(-c3ccc(C4(N)CCC4)cc3)c(-c3ccccc3)c2c(=O)n1CC#N [Example 96, 2-(6-(4-(1-Aminocyclobutyl)phenyl)-2-(methylthio)-4-oxo-5-phenylfuro[2,3-d]pyrimidin-3(4H)-yl)acetonitrile] | ≤ 100 | 1000 to 10000 | ≤ 100
13 | CSc1nc2oc(-c3ccc(C4(N)CCC4)cc3)c(-c3ccccc3)c2c(=O)n1CC(N)=O [Example 97, 2-(6-(4-(1-Aminocyclobutyl)phenyl)-2-(methylthio)-4-oxo-5-phenylfuro[2,3-d]pyrimidin-3(4H)-yl)acetamide] | 100 to 1000 | > 10000 | 100 to 1000
14 | C[C@@H](CO)Nc1nc2oc(-c3ccc(C4(N)CCC4)cc3)c(-c3ccccc3)c2c(=O)n1C [Example 98, (S)-6-(4-(1-Aminocyclobutyl)phenyl)-2-(1-hydroxypropan-2-ylamino)-3-methyl-5-phenylfuro[2,3-d]pyrimidin-4(3H)-one] | 100 to 1000 | > 10000 | 100 to 1000
15 | Cn1c(N2CCNC(=O)C2)nc2oc(-c3ccc(C4(N)CCC4)cc3)c(-c3ccccc3)c2c1=O [Example 99, 6-(4-(1-Aminocyclobutyl)phenyl)-3-methyl-2-(3-oxopiperazin-1-yl)-5-phenylfuro[2,3-d]pyrimidin-4(3H)-one] | 1000 to 10000 | 1000 to 10000 | ≤ 100
16 | NC1(c2ccc(-c3oc4ncn(CC5CC5)c(=O)c4c3-c3ccccc3)cc2)CCC1 [Example 100] | 1000 to 10000 | 1000 to 10000 | ≤ 100
17 | N#CCn1cnc2oc(-c3ccc(C4(N)CCC4)cc3)c(-c3ccccc3)c2c1=O [Example 101, 2-(6-(4-(1-Aminocyclobutyl)phenyl)-4-oxo-5-phenylfuro[2,3-d]pyrimidin-3(4H)-yl)acetonitrile] | 100 to 1000 | 1000 to 10000 | 100 to 1000
18 | NC1(c2ccc(-c3oc4ncn(CCO)c(=O)c4c3-c3ccccc3)cc2)CCC1 [Example 102, 6-(4-(1-Aminocyclobutyl)phenyl)-3-(2-hydroxyethyl)-5-phenylfuro[2,3-d]pyrimidin-4(3H)-one, HCl] | 1000 to 10000 | 1000 to 10000 | 100 to 1000
19 | NC1(c2ccc(-c3oc4ncn(CCF)c(=O)c4c3-c3ccccc3)cc2)CCC1 [Example 103, 6-(4-(1-Aminocyclobutyl)phenyl)-3-(2-fluoroethyl)-5-phenylfuro[2,3-d]pyrimidin-4(3H)-one, HCl] | 100 to 1000 | 1000 to 10000 | ≤ 100
20 | CCn1cnc2oc(-c3ccc(C4(N)CCC4)cc3)c(-c3ccccc3)c2c1=O [Example 104, 6-(4-(1-Aminocyclobutyl)phenyl)-3-ethyl-5-phenylfuro[2,3-d]pyrimidin-4(3H)-one, HCl] | 1000 to 10000 | 1000 to 10000 | ≤ 100
21 | COCCn1cnc2oc(-c3ccc(C4(N)CCC4)cc3)c(-c3ccccc3)c2c1=O [Example 105, 6-(4-(1-Aminocyclobutyl)phenyl)-3-(2-methoxyethyl)-5-phenylfuro[2,3-d]pyrimidin-4(3H)-one, HCl] | 1000 to 10000 | 1000 to 10000 | 100 to 1000
22 | NC1(c2ccc(-c3oc4ncn(CC(F)(F)F)c(=O)c4c3-c3ccccc3)cc2)CCC1 [Example 106, 6-(4-(1-Aminocyclobutyl)phenyl)-5-phenyl-3-(2,12-trifluoroethyl)furo[2,3-d]pyrimidin-4(3H)-one, HCl] | 1000 to 10000 | 1000 to 10000 | ≤ 100
23 | CC(C)n1cnc2oc(-c3ccc(C4(N)CCC4)cc3)c(-c3ccccc3)c2c1=O [Example 107, 6-(4-(1-Aminocyclobutyl)phenyl)-3-isopropyl-5-phenylfuro[2,3-d]pyrimidin-4(3H)-one, HCl] | 1000 to 10000 | 1000 to 10000 | 100 to 1000
